According to patent US7754064B2, “Methods and apparatus for the on-site production of hydrogen peroxide” (Eltron Research & Development, priority 2006, dated 2010):

Assays:
[1] = tested on: mixed plankton
Text: This study largely entailed LD50 and LD100 lethality screening of the target chemistry produced by the electrolytic system under development to natural marine organisms. Specifically, the work focused on organisms with sizes of less than 100 μm as larger organisms can be readily eliminated by other technologies (screening or hydrocyclones). Within this size regime normal crustaceans, planktons, and etc. obtained by trawling were targeted. […] For the trawled organisms and the protozoan, destruction was noted by lack of motility.
Mixed indigenous zooplankton (these provided random samples of a variety of organisms as might be encountered in ballast water) were obtained by plankton trawls from the waters off Woods Hole, Mass. and the toxicity assays focused on zooplankton (such as dinoflagellates which are less prone to sedimentation than say diatoms) where viability could be readily assessed through motility monitoring. After the samples were collected they were counted and separated into sample populations under a dissecting scope with a low heat lamp using standard techniques. […]
Toxicity studies were performed on the targeted plankton samples by exposing them to synthetic cell product and monitored until mortality occurred. […]

[2] = tested on: Vibrio hollisae; details: 20° C., 3-50 ppm H2O2, 6-30 minutes exposure
Experimental: A stock culture of Vibrio hollisae was diluted to 1×10-5 with micropore filtered seawater (FSW). The dilution was calculated to yield a sample density of roughly 350 CFUs/mL after 48 hr of grow up. The experimental matrix consisted of peroxide concentration versus exposure time. The bacteria were exposed to the peroxide in liquid cultures, and then the treated bacteria were plated onto agar plates and colony counts done at 24 and 48 hrs. Data were analyzed for LD-100 conditions for maximal effect at lowest concentration and shortest exposure time. Six tubes of 5 mL bacterial culture were prepared. […] A control sample containing NO peroxide was also prepared. At each treatment exposure time point (6, 10, 15, and 30 minutes respectively), 1 mL was removed from each tube and filtered through a mixed cellulose ester filter (0.45 micron pore size, 47 mm dia., Fisher #09-719-1A). Each filter was then placed onto a TCBS (thiosulfate, citrate, bile, and sucrose) media plate and incubated for 48 hr at room temperature (23° C.). Standard colony counts were then made for the entire filter for each treatment condition. The procedure was repeated in triplicate. For each repetition, three separate samples (batches) were prepared and two duplicate trials were run for each batch sample. The results were statistically analyzed using ANOVA and paired student t-test paired comparisons. […]

[3] = tested on: QPX (Quahog Parasite-X)
Experimental: For the QPX studies, a stock QPX culture (Quahog Parasite-X, a protista slime mold causing shellfish disease) was washed three times in sterile nature seawater (NSW) to remove the nutrient media and disperse the encapsulating mucous mass. The washed sample was then re-suspended in sterile NSW (working culture). A sample aliquot was removed and diluted (1:1) in sterile NSW to determine the actual cell density. […] A control sample with NO peroxide in the treatment solution was also prepared. […] After incubation (48 hrs) the remainder of the innocula were centrifiged at 10,000 G for 2 minutes. All fluid was removed from the tube to leave a final volume of 100 μL. Propidium iodide (100 μL; 20 g/mL) was added to each tube and allowed to sit for 30 minutes in the dark at room temperature. The tubes were then centrifuged (10,000 G for 2 minutes) and the resulting pellet washed three times with filtered NSW (250 μL). After the third wash, 200 μL of fluid was removed from each tube and the pellet was re-suspended in the remaining 50 μL of fluid. The fluids generated from this preparation were added to a Neubauer hemocytometer counting chamber and the cell concentrations were determined between treatments. […]

[4] = tested on: Perkinsus marinus; details: treatment time 30 minutes, four trials
Experimental: The final series of trials explored the effectiveness of the treatment against the protozoan Perkinsus marinus which is pathogenic to shellfish and causes the disease Dermo. Essentially the same protocol used for QPX was adapted to Perkinsus and represented a novel method of determining Perkinsus viability after disinfection treatments. Here four duplicate trials were run, again with a treatment time of 30 minutes.

[5] = tested on: Pseudomonas cepacia; details: alkaline solutions of 1000 ppm H2O2, filtration units
[6] = tested on: biofouling; details: cited from earlier work

In the case of `OO` [hydrogen peroxide], the “time*dosage factor for plankton kill” value ([1]; mixed plankton, 4, 10 and 20° C., from LD-50 and LD-100, averaged over four concentrations) is reported as 1000 to 3000 ppm min, the “LD50's as percent of 100% mortality times” value ([1]; mixed zooplankton in natural seawater with added H2O2) is reported as 40-50% and the “time dosage values sufficient to achieve 2 log kills (99%)” value [2] is reported as 1000 to 2000 ppm min. The “average viable cell count” value ([3]; 10 ppm H2O2, 30 min., 20° C., average of two trials) was 430 cells/L, the “resistance to the treatment compared with general plankton and Vibrio ssp.” value ([3]; 30 minutes treatment, 0-150 ppm) was “slightly more resistant” and the “time*dosage values sufficient to reduce occurrence of Perkinsus to hinder spread of disease” value [4] was 1500 to 5000 ppm. The Pseudomonas cepacia eliminated [5] was “more than 100%”, the “log kill of Pseudomonas cepacia” value [5] was 7 log and the “concentration typically required for sufficient effectiveness in sterilization” value ([6]; industrial disinfection (powerplant biofouling, sewage treatment)) was 50-200 ppm. The “concentration that can be effective towards fouling control” value ([6]; recent data) was 2 ppm.
